Measured values reported in ChEMBL document CHEMBL1136484, “3D-QSAR studies on natural acetylcholinesterase inhibitors of Sarcococca saligna by comparative molecular field analysis (CoMFA)” (Bioorg Med Chem Lett, 2003).

Target: Acetylcholinesterase (Homo sapiens, UniProt P22303)
Assay: Compound was tested for the in silico inhibition of acetylcholinesterase

Sequence of Acetylcholinesterase (P22303 whole entry): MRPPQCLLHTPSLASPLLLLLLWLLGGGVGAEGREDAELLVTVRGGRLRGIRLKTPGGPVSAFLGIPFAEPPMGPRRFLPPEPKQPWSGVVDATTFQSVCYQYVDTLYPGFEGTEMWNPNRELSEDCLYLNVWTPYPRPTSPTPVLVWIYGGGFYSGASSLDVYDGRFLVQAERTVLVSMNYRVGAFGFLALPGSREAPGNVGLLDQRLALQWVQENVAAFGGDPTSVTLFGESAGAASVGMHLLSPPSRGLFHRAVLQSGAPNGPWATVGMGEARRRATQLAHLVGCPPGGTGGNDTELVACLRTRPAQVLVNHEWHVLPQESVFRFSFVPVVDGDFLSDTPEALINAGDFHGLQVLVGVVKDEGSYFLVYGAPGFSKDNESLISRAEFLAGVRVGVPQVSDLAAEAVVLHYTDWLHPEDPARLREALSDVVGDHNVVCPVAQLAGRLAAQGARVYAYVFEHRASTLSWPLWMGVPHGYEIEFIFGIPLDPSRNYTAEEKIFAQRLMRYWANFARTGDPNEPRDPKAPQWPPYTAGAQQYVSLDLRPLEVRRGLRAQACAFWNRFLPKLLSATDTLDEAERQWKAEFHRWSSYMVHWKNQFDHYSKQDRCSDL

Point of comparison: `C/C=C(\C)C(=O)NC1=CC[C@@]2(C)[C@@H](CC[C@H]3C4CC[C@H]([C@H](C)N(C)C)[C@@]4(C)CC[C@@H]32)C1=O` (stereo not given in full), IC50 13.8 µM. Against it:
- CC(=O)N(C)[C@@H](C)[C@H]1CC[C@H]2[C@@H]3CC[C@H]4C[C@@H](N(C)C)CC[C@]4(C)[C@H]3CC[C@]12C — 3.6-fold higher, 50.1 µM
- C/C=C(\C)C(=O)N[C@@H]1C=C2CC[C@H]3C4=CC[C@H]([C@H](C)N(C)C)[C@@]4(C)CC[C@@H]3[C@@]2(C)CC1 — 1.8-fold lower, 7.76 µM
- C[C@H](NC=O)[C@H]1CC[C@H]2[C@@H]3CC[C@H]4C[C@@H](N(C)C)CC[C@]4(C)[C@H]3CC[C@]12C — 2.1-fold lower, 6.46 µM
- CN[C@@H](C)C1=CC[C@H]2[C@@H]3CC=C4C[C@@H](OC)CC[C@]4(C)[C@H]3CC[C@]12C — 6-fold higher, 83.2 µM
- CO[C@@H]1CC2=CC[C@@H]3[C@H](CC[C@]4(C)C([C@H](C)N(C)C)=CC[C@@H]34)[C@@]2(C)C[C@@H]1O — 18-fold higher, 251 µM
- CC(=O)N(C)[C@@H](C)[C@H]1CC[C@H]2[C@@H]3CC=C4C[C@@H](N(C)C)CC[C@]4(C)[C@H]3CC[C@]12C — within 1.5-fold, 20 µM
- C/C=C(\C)C(=O)N[C@H]1CC[C@@]2(C)C(=CC[C@H]3C4=CC[C@H]([C@H](C)N(C)C)[C@@]4(C)CC[C@@H]32)C1=O — 2.4-fold lower, 5.75 µM
- CN[C@H]1CC[C@@]2(C)[C@@H](CC[C@@H]3[C@@H]2CC[C@]2(C)C([C@H](C)N(C)C)=CC[C@@H]32)C1 — within 1.5-fold, 20.4 µM
- C/C=C(\C)C(=O)N[C@@H]1C=C2CC[C@H]3[C@@H]4CC[C@H]([C@H](C)N(C)C)[C@@]4(C)CC[C@@H]3[C@@]2(C)C[C@@H]1O — within 1.5-fold, 15.8 µM
- CC(=O)O[C@@H]1C2CC[C@H]3C4CC=C([C@H](C)N(C)C)[C@@]4(C)CC[C@@H]3[C@@]2(C)CC[C@@H]1NC(=O)C=C(C)C (stereo not given in full) — 2.6-fold lower, 5.25 µM
- CN[C@H]1CC[C@@]2(C)C(CC[C@H]3[C@@H]4CC[C@H]([C@H](C)N(C)C)[C@@]4(C)CC[C@@H]32)C1 (stereo not given in full) — 2.2-fold lower, 6.17 µM
- CO[C@H]1CC[C@@]2(C)C(=CC[C@@H]3[C@@H]2CC[C@]2(C)C([C@H](C)N(C)C=O)=CC[C@@H]32)C1 — 3.6-fold higher, 49 µM
- C/C=C(\C)C(=O)N[C@H]1CC[C@@]2(C)C(=CC[C@H]3[C@@H]4CC[C@H]([C@H](C)N(C)C)[C@@]4(C)CC[C@@H]32)[C@H]1O — 2.2-fold higher, 30.2 µM
- C[C@@H]([C@H]1CC[C@H]2[C@@H]3CC[C@H]4C(=O)C(NC(=O)c5ccccc5)=CC[C@]4(C)[C@H]3CC[C@]12C)N(C)C — 2.6-fold lower, 5.25 µM
- C/C=C(\C)C(=O)N[C@@H]1[C@H](O)C2CC[C@H]3C4=CC[C@H]([C@H](C)N(C)C)[C@@]4(C)CC[C@@H]3[C@@]2(C)C[C@@H]1O (stereo not given in full) — 2.4-fold higher, 33.1 µM
- C/C=C(\C)C(=O)N[C@H]1C(OC(C)=O)C[C@@]2(C)C(CC[C@H]3C4CC=C([C@H](C)N(C)C)[C@@]4(C)CC[C@@H]32)[C@H]1OC(C)=O (stereo not given in full) — 3.6-fold higher, 50.1 µM
- CO[C@H]1CC[C@@]2(C)C(=CC[C@H]3[C@@H]4CC[C@H]([C@H](C)N(C)C)[C@@]4(C)CC[C@@H]32)C1 — 3.1-fold higher, 42.7 µM
- C/C=C(\C)C(=O)N[C@@H]1[C@H](OC(C)=O)[C@@H]2CC[C@H]3C4=CC[C@H]([C@H](C)N(C)C)[C@@]4(C)CC[C@@H]3[C@@]2(C)C[C@@H]1O — 4.5-fold higher, 61.7 µM
- C[C@@H]([C@H]1CC[C@H]2[C@@H]3CC[C@H]4C[C@@H](NC(=O)c5ccccc5)[C@@H](O)C[C@]4(C)[C@H]3CC[C@]12C)N(C)C — 5.6-fold higher, 77.6 µM
- C/C=C(\C)C(=O)N[C@H]1CC[C@@]2(C)C(=CC[C@H]3[C@@H]4CC[C@H]([C@H](C)N(C)C)[C@@]4(C)CC[C@@H]32)C1=O — 1.9-fold lower, 7.08 µM
- C[C@@H]([C@H]1CC[C@H]2[C@@H]3CC=C4C[C@@H](N(C)C)CC[C@]4(C)[C@H]3CC[C@]12C)N(C)C — 2.9-fold higher, 39.8 µM
- C/C(=C\C(=O)N(C)[C@H]1CC[C@@]2(C)[C@@H](CC[C@@H]3[C@@H]2CC[C@]2(C)[C@@H]([C@H](C)N(C)C)CC[C@@H]32)C1)C(C)C — 2.1-fold lower, 6.46 µM
- CC(=O)O[C@H]1[C@@H](NC(=O)c2ccccc2)[C@@H](O)C[C@]2(C)[C@H]3CC[C@]4(C)[C@@H]([C@H](C)N(C)C)CC[C@H]4[C@@H]3CC[C@@H]12 — 17-fold higher, 229 µM
- C/C=C(\C)C(=O)N[C@@H]1[C@H](OC(C)=O)[C@@H]2CC[C@@H]3[C@H](CC[C@]4(C)[C@@H]([C@H](C)N(C)C)CC[C@@H]34)[C@@]2(C)C[C@@H]1O — 13-fold higher, 182 µM
- CC(=O)N[C@H]1CC[C@@]2(C)[C@@H](CC[C@@H]3[C@@H]2CC[C@]2(C)[C@@H]([C@H](C)N(C)C)CC[C@@H]32)C1 — 5-fold higher, 69.2 µM
- C/C(=C\C(=O)N(C)[C@H]1CC[C@@]2(C)[C@@H](CC[C@@H]3[C@@H]2CC[C@]2(C)C([C@H](C)N(C)C)=CC[C@@H]32)C1)C(C)C — 2.2-fold lower, 6.17 µM
- CC(=O)N(C)[C@H]1CC[C@@]2(C)[C@@H](CC[C@@H]3[C@@H]2CC[C@]2(C)[C@@H]([C@H](C)N(C)C)CC[C@@H]32)C1 — 5.1-fold higher, 70.8 µM
- C[C@@H]([C@H]1CC[C@H]2[C@@H]3CC[C@H]4C[C@@H](NC(=O)c5ccccc5)CC[C@]4(C)[C@H]3CC[C@]12C)N(C)C [EPIPACHYSAMINE D] — 2.1-fold higher, 28.8 µM
- C[C@@H]([C@H]1CC[C@H]2[C@@H]3CC[C@H]4C[C@@H](N(C)C(=O)/C=C/c5ccccc5)CC[C@]4(C)[C@H]3CC[C@]12C)N(C)C [SALIGCINNAMIDE] — within 1.5-fold, 19.5 µM
